Values joined by “and” are separate entries in the source; they are usually repeats but may differ in a detail not shown here. Equal values may be shown once.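 Cultured in 96-well plates, cells were exposed to test compound for 48 hours across five concentrations. The concentration for 50% growth inhibition is given as GI50. TGI is the concentration that stops growth completely.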
system: IGROV1 ovarian; test: inhibition of tumour cell growth, NCI panel, 48 h

Row | SMILES | GI50 | TGI
1 | CCOC(=O)Oc1c(OC)cc(C(=O)NC2CCc3cc(OC)c(OC)c(OC)c3-c3ccc(SC)c(=O)cc32)cc1OC (stereo not drawn) | < 0.007 µM | > 70 µM
2 | CC(=O)Nc1ccc(C(=O)NN2C(=O)C(Cl)C2c2ccccc2)cc1 (stereo not drawn) |  | > 100 µM
3 | CC(C)(C)OC(=O)NCC(=O)OCc1ccccc1 |  | > 100 µM
4 | Cc1ccc(SC(C)/C=C/NNC2=NC(c3ccccc3)C(c3ccccc3)=NN2)cc1 (stereo not drawn) |  | > 100 µM
5 | CSc1nc2c(nc(C)c(=O)n2C2OCC(OC(C)=O)C(OC(C)=O)C2OC(C)=O)c(=O)[nH]1 (stereo not drawn) |  | > 100 µM
6 | O=S(O)CCCCSSCC(O)C(O)CSSCCCCS(=O)O (stereo not drawn) |  | > 100 µM
7 | O=C1OC(c2ccccc2)=N/C1=C/C=C/c1ccco1 |  | > 100 µM
8 | Cc1ccccc1N1C(=O)/C(=C/c2ccc(N(CCC#N)CCC#N)cc2)N=C1c1cc([N+](=O)[O-])ccc1Cl |  | > 100 µM
9 | COc1ccc(C2S/C(=C\c3ccccc3O)C(=O)N2NC(=O)Cc2ccccc2)cc1 (stereo not drawn) |  | > 100 µM
10 | Cc1ccc(S(=O)(=O)NCC2CCCCC2=O)cc1 (stereo not drawn) |  | > 100 µM
11 | CC(C)=C[C@@H]1C[C@H](C)[C@H]2CC[C@H](C)C3=C2[C@](O)(OC3=O)[C@]1(C)O | > 100 µM | > 100 µM
12 | CCC[CH2][Sn]([CH2]CCC)([CH2]CCC)[O]C(=O)CC | 0.167 µM | 0.397 µM
13 | CNC(=S)NC1CCCCC1NC(=S)NC (stereo not drawn) |  | > 100 µM
14 | CC1OC(n2cc(F)c(=O)[nH]c2=O)C=CC1O (stereo not drawn) |  | > 100 µM
15 | C=C(C=O)[C@@H]1C2OC(=O)C(=C)[C@@H]2CC(O)[C@@]1(C)CC (stereo partly drawn) |  | > 28.7 µM
16 | C=C(CCCCC)CN1CCCC1[C@@](C)(O)CC(=O)OCC (stereo partly drawn) |  | > 100 µM
17 | C=CC1CC12C(=O)C1OC2(C)C2C(=O)c3cc4ccccc4cc3C(=O)C12 (stereo not drawn) | 39 µM | > 100 µM
18 | O=C1c2ccccc2C(=O)C1(Cl)C1(S(=O)(=O)O)c2ccccc2-c2ccccc21 |  | > 100 µM

system: MCF7 breast; test: inhibition of tumour cell growth, NCI panel, 48 h

Row | SMILES | GI50 | TGI
19 | Cn1cc(C2=C(c3ccc4ccccc4c3)C(=O)NC2=O)c2ccccc21 | 2.19 µM | > 25 µM
20 | CC(C)(C)C(=O)OCOP(=O)(OCOC(=O)C(C)(C)C)C1CCCN(O)C1=O (stereo not drawn) | 0.338 µM | 3.86 µM
21 | CCCCc1c(OC)cc(O)c2c1C(=O)c1[nH]c(C(=O)O)c(O)c(=O)c1C2=O |  | > 100 µM
22 | COC(=O)c1cc2c(cc1O)[C@@H](NC(C)=O)CCc1cc(OC)c(OC)c(OC)c1-2 |  | > 100 µM
23 | Clc1ccc2c(NCCCNc3nccc(Nc4ccc(Br)cc4)n3)ccnc2c1 | 1.39 µM | 2.94 µM
24 | CC(C)=C[C@@H]1C[C@H](C)[C@H]2CC[C@H](C)C3=C2[C@](O)(OC3=O)[C@]1(C)O | 71.5 µM | > 100 µM
25 | C=CC1CC12C(=O)C1OC2(C)C2C(=O)c3cc4ccccc4cc3C(=O)C12 (stereo not drawn) | 16.1 µM | > 100 µM

system: MALME-3M melanoma; test: inhibition of tumour cell growth, NCI panel, 48 h

Row | SMILES | TGI | GI50
26 | O=[n+]1c2c(n([O-])c3ccccc31)CCCCCCCCCC2 | > 100 µM | 
27 | Cn1cc(C2=C(c3ccc4ccccc4c3)C(=O)NC2=O)c2ccccc21 | > 25 µM | > 22.1 µM
28 | O=C(OCc1ccc2cccc(O)c2n1)N1CCN(C(=O)c2cc3cc(F)ccc3[nH]2)CC1 | 2.78 µM | 1.46 µM
29 | O=C1CCCC/C(=C/c2ccccc2)N1 | > 100 µM | 
30 | O=C1CN=C(C[N+](=O)[O-])c2ccccc21 | > 100 µM | 
31 | CCCCN(CCCC)CC(C(=O)Nc1ccc([N+](=O)[O-])cc1[N+](=O)[O-])/C(C)=N\NC(=S)NN (stereo not drawn) | > 100 µM | 
32 | S=C(N/N=C/c1ccco1)NC12CC3CC(CC(C3)C1)C2 | > 100 µM | 
33 | CS(=O)(=O)N/N=C/CN1C(=O)c2ccccc2C1=O | > 100 µM | 
34 | CC(C)(C)C(=O)OCOP(=O)(OCOC(=O)C(C)(C)C)C1CCCN(O)C1=O (stereo not drawn) | 5.81 µM | 0.425 µM
35 | CC(=O)O.CC(=O)O.CC(=O)O.CC(=O)O.CC(=O)O.CC(=O)O.O.[Ti].[Ti] | > 100 µM | > 100 µM
36 | COC(=O)C1=C(c2ccc3c(c2)OCO3)O[C@H](c2cc(OC)c(OC)c(OC)c2)[C@H]1COC(C)=O | 92.5 µM | 
37 | COc1ccc(OC)c(NC(=O)C(=O)NNC(=O)c2sc(NNC(C)=O)nc2C)c1 | > 100 µM | 
38 | O=[N+]([O-])c1nccn1CC(O)c1ccc(F)cc1 (stereo not drawn) | > 100 µM | 
39 | COc1ccc(NC(=O)CCc2cc(-c3ccc(O)c(OC)c3)nc(NC#N)n2)cc1 | > 100 µM | 
40 | COC(=O)c1cc2c3ccccc3n(C(C)=O)c2cn1 | > 100 µM | 
41 | O=C1c2ccccc2C2(Br)C(=O)c3ccccc3C12 (stereo not drawn) | > 100 µM | 
42 | CCCCOC(=O)C1C(c2ccc(Cl)cc2)NC(c2ccc(Cl)cc2)C(C(=O)OCCCC)S1(=O)=O (stereo not drawn) | > 100 µM | 
43 | Cc1cc(Br)cc(C)c1NC(=O)C(=O)C(C(=O)c1ccc2ccccc2c1)C1OC(=O)c2ccccc21 (stereo not drawn) | 34.5 µM | 
44 | CCOC(=O)Oc1c(OC)cc(C(=O)NC2CCc3cc(OC)c(OC)c(OC)c3-c3ccc(SC)c(=O)cc32)cc1OC (stereo not drawn) | > 70 µM | 0.0205 µM

Row | SMILES | TGI | GI50
45 | CC(=O)Nc1ccc(C(=O)NN2C(=O)C(Cl)C2c2ccccc2)cc1 (stereo not drawn) | > 100 µM | 
46 | COC(=O)c1cc2c(cc1O)[C@@H](NC(C)=O)CCc1cc(OC)c(OC)c(OC)c1-2 |  | 0.0299 µM
47 | CC(C)(C)OC(=O)NCC(=O)OCc1ccccc1 | > 100 µM | 
48 | Cc1ccc(SC(C)/C=C/NNC2=NC(c3ccccc3)C(c3ccccc3)=NN2)cc1 (stereo not drawn) | > 100 µM | 
49 | CC(C)(C)[SiH]12(OC(C(F)(F)F)(C(F)(F)F)c3ccccc31)OC(C(F)(F)F)(C(F)(F)F)c1ccccc12 | 31 µM | 
50 | CSc1nc2c(nc(C)c(=O)n2C2OCC(OC(C)=O)C(OC(C)=O)C2OC(C)=O)c(=O)[nH]1 (stereo not drawn) | > 100 µM | 
51 | O=S(O)CCCCSSCC(O)C(O)CSSCCCCS(=O)O (stereo not drawn) | 25.8 µM and 35.9 µM | 
52 | O=C1OC(c2ccccc2)=N/C1=C/C=C/c1ccco1 | > 100 µM | 
53 | Cc1ccccc1N1C(=O)/C(=C/c2ccc(N(CCC#N)CCC#N)cc2)N=C1c1cc([N+](=O)[O-])ccc1Cl | > 100 µM | 
54 | COc1ccc(C2S/C(=C\c3ccccc3O)C(=O)N2NC(=O)Cc2ccccc2)cc1 (stereo not drawn) | > 100 µM | 
55 | Cc1ccc(S(=O)(=O)NCC2CCCCC2=O)cc1 (stereo not drawn) | > 100 µM | 
56 | CC(C)=C[C@@H]1C[C@H](C)[C@H]2CC[C@H](C)C3=C2[C@](O)(OC3=O)[C@]1(C)O | > 100 µM | > 100 µM
57 | CCC[CH2][Sn]([CH2]CCC)([CH2]CCC)[O]C(=O)CC | 0.349 µM | 0.151 µM
58 | CNC(=S)NC1CCCCC1NC(=S)NC (stereo not drawn) | > 100 µM | 
59 | CC1OC(n2cc(F)c(=O)[nH]c2=O)C=CC1O (stereo not drawn) | > 100 µM | 
60 | C=C(C=O)[C@@H]1C2OC(=O)C(=C)[C@@H]2CC(O)[C@@]1(C)CC (stereo partly drawn) | 18.7 µM | 
61 | C=C(CCCCC)CN1CCCC1[C@@](C)(O)CC(=O)OCC (stereo partly drawn) | > 100 µM | 
62 | C=CC1CC12C(=O)C1OC2(C)C2C(=O)c3cc4ccccc4cc3C(=O)C12 (stereo not drawn) | 57.4 µM | 16.8 µM
63 | O=C1c2ccccc2C(=O)C1(Cl)C1(S(=O)(=O)O)c2ccccc2-c2ccccc21 | > 100 µM | 

system: HOP-62 NSCLC; test: inhibition of tumour cell growth, NCI panel, 48 h

Row | SMILES | GI50 | TGI
64 | Cn1cc(C2=C(c3ccc4ccccc4c3)C(=O)NC2=O)c2ccccc21 | > 25 µM | > 25 µM
65 | O=C(OCc1ccc2cccc(O)c2n1)N1CCN(C(=O)c2cc3cc(F)ccc3[nH]2)CC1 | 1.37 µM | 3.16 µM
66 | CNC(=S)N(C)C(=S)Nn1c(=O)c(C)nn(C)c1=S |  | > 100 µM
67 | O=C1CCCC/C(=C/c2ccccc2)N1 |  | > 100 µM
68 | O=C1CN=C(C[N+](=O)[O-])c2ccccc21 |  | > 100 µM
69 | CCCCN(CCCC)CC(C(=O)Nc1ccc([N+](=O)[O-])cc1[N+](=O)[O-])/C(C)=N\NC(=S)NN (stereo not drawn) |  | > 100 µM
70 | S=C(N/N=C/c1ccco1)NC12CC3CC(CC(C3)C1)C2 |  | > 100 µM
71 | CS(=O)(=O)N/N=C/CN1C(=O)c2ccccc2C1=O |  | > 100 µM
72 | CC(C)(C)C(=O)OCOP(=O)(OCOC(=O)C(C)(C)C)C1CCCN(O)C1=O (stereo not drawn) | 0.487 µM | 6.63 µM
73 | CC(=O)O.CC(=O)O.CC(=O)O.CC(=O)O.CC(=O)O.CC(=O)O.O.[Ti].[Ti] | > 100 µM | > 100 µM
74 | COC(=O)C1=C(c2ccc3c(c2)OCO3)O[C@H](c2cc(OC)c(OC)c(OC)c2)[C@H]1COC(C)=O |  | 84.7 µM
75 | COc1ccc(OC)c(NC(=O)C(=O)NNC(=O)c2sc(NNC(C)=O)nc2C)c1 |  | > 100 µM
76 | CCCCc1c(OC)cc(O)c2c1C(=O)c1[nH]c(C(=O)O)c(O)c(=O)c1C2=O |  | 9.29 µM
77 | O=[N+]([O-])c1nccn1CC(O)c1ccc(F)cc1 (stereo not drawn) |  | > 100 µM
78 | COc1ccc(NC(=O)CCc2cc(-c3ccc(O)c(OC)c3)nc(NC#N)n2)cc1 |  | > 100 µM
79 | COC(=O)c1cc2c3ccccc3n(C(C)=O)c2cn1 |  | > 100 µM
80 | O=C1c2ccccc2C2(Br)C(=O)c3ccccc3C12 (stereo not drawn) |  | > 100 µM
81 | CCCCOC(=O)C1C(c2ccc(Cl)cc2)NC(c2ccc(Cl)cc2)C(C(=O)OCCCC)S1(=O)=O (stereo not drawn) |  | > 100 µM
82 | Cc1cc(Br)cc(C)c1NC(=O)C(=O)C(C(=O)c1ccc2ccccc2c1)C1OC(=O)c2ccccc21 (stereo not drawn) |  | 18.7 µM

Reference: PubChem BioAssay (NCI)
